Results from article PMC8217266 (Clinical Pharmacology and Therapeutics, 2021).

Key:
human MATE2 = human MATE2 (Homo sapiens, UniProt Q86VL8); assay: cell-based
human MATE1 = biological target: T1, human MATE1 (Homo sapiens, UniProt Q96FL8); assay: cell-based
T1 sequence (Q96FL8 1-570): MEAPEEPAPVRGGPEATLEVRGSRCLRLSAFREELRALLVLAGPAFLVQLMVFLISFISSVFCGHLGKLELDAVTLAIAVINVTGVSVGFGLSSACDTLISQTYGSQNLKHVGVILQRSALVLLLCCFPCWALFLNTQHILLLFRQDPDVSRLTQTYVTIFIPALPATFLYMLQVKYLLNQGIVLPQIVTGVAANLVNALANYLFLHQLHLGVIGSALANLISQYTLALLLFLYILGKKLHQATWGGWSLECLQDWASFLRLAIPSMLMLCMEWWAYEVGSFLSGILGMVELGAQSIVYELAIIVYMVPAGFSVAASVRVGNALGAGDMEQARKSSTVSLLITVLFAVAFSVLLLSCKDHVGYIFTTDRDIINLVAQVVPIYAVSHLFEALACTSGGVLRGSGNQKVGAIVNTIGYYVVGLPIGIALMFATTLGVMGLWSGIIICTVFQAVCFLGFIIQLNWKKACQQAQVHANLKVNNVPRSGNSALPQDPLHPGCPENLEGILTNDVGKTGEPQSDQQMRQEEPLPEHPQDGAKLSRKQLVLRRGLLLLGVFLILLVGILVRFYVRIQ

human OCT1 = biological target: T2, human OCT1 (Homo sapiens, UniProt O15245); assay: cell-based
T2 sequence (O15245 1-554): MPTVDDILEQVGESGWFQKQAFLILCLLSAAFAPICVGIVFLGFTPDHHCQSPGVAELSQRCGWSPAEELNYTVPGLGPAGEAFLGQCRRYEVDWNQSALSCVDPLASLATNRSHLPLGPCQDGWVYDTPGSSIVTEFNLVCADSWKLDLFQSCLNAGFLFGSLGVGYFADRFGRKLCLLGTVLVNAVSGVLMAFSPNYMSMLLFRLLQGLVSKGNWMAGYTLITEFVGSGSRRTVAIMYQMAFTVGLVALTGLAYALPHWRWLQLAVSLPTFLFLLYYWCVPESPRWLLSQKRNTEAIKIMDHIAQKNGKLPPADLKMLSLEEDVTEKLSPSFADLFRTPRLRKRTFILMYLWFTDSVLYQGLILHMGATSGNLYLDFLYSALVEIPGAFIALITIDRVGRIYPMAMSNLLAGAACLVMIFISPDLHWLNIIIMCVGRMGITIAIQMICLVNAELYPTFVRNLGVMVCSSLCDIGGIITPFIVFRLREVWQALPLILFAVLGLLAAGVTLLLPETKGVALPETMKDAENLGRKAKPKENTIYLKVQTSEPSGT

BCRP = biological target: T3, BCRP (Homo sapiens, UniProt Q9UNQ0); assay: biochemical
T3 sequence (Q9UNQ0 1-655): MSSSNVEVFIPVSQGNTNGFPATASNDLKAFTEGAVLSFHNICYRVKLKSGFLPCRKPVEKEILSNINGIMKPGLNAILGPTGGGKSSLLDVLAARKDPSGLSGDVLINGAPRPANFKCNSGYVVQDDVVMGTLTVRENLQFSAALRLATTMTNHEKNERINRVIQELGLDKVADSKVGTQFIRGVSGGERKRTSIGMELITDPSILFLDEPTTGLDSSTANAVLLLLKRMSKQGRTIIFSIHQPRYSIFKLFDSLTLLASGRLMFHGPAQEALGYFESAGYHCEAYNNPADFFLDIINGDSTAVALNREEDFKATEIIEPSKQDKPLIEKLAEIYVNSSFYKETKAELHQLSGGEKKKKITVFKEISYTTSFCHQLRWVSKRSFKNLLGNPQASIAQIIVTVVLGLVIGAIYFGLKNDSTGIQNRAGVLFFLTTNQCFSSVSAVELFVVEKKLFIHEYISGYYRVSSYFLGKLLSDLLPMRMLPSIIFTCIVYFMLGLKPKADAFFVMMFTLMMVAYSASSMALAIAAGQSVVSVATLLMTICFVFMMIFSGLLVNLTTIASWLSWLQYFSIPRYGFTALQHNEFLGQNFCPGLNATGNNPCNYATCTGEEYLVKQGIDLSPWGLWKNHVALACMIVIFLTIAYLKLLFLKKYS

P-gp = P-gp (Homo sapiens, UniProt P08183); assay: biochemical
human OAT1 = biological target: T4, human OAT1 (Homo sapiens, UniProt Q4U2R8); assay: cell-based
T4 sequence (Q4U2R8 1-563): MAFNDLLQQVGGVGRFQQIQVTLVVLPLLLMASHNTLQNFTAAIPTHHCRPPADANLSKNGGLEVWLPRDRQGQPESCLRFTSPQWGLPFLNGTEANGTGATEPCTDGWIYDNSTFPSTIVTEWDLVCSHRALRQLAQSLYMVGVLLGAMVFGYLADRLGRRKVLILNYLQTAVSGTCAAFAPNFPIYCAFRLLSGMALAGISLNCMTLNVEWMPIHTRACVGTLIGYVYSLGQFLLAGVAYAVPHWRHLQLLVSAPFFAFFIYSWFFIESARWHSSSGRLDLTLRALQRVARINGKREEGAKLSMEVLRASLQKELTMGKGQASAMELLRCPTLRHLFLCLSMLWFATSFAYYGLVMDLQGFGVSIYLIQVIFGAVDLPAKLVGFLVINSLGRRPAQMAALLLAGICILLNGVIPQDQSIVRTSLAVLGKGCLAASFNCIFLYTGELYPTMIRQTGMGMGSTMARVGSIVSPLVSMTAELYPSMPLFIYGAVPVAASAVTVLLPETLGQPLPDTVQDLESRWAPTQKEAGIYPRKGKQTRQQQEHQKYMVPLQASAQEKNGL

human OAT3 [1] = biological target: T5, human OAT3 (Homo sapiens, UniProt Q8TCC7); assay: cell-based
T5 sequence (Q8TCC7 1-542): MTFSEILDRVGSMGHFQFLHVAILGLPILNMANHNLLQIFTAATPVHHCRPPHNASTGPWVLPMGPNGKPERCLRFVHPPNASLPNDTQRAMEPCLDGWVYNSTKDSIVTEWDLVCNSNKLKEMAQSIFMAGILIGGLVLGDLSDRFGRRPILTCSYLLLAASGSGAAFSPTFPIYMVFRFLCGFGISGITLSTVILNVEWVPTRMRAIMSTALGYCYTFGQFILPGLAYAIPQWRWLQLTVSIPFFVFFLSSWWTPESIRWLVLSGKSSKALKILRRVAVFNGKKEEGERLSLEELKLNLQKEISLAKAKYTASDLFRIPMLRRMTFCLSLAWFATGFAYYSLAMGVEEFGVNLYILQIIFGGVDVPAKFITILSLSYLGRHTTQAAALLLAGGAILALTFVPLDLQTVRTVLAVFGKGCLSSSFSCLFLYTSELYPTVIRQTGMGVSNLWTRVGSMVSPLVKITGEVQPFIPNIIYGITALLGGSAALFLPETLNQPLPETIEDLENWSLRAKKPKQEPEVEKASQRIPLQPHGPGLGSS

[2] = test system: transporters at major organ sites; assay: Prediction of transporter-mediated inhibition / DDI potential; set-up: species or system human; conditions: of 11 transporters; FDA criteria
human OAT3 [3] = biological target: T5, human OAT3; conditions: human
[4] = test system: triglycerides, LDL cholesterol, and total cholesterol, biomarkers of OCT1 activity; assay: UCSF EHR analysis: lipid levels in patients with HIV, on vs off drug; format: in vivo, human

Chain of P-gp (P08183 whole entry): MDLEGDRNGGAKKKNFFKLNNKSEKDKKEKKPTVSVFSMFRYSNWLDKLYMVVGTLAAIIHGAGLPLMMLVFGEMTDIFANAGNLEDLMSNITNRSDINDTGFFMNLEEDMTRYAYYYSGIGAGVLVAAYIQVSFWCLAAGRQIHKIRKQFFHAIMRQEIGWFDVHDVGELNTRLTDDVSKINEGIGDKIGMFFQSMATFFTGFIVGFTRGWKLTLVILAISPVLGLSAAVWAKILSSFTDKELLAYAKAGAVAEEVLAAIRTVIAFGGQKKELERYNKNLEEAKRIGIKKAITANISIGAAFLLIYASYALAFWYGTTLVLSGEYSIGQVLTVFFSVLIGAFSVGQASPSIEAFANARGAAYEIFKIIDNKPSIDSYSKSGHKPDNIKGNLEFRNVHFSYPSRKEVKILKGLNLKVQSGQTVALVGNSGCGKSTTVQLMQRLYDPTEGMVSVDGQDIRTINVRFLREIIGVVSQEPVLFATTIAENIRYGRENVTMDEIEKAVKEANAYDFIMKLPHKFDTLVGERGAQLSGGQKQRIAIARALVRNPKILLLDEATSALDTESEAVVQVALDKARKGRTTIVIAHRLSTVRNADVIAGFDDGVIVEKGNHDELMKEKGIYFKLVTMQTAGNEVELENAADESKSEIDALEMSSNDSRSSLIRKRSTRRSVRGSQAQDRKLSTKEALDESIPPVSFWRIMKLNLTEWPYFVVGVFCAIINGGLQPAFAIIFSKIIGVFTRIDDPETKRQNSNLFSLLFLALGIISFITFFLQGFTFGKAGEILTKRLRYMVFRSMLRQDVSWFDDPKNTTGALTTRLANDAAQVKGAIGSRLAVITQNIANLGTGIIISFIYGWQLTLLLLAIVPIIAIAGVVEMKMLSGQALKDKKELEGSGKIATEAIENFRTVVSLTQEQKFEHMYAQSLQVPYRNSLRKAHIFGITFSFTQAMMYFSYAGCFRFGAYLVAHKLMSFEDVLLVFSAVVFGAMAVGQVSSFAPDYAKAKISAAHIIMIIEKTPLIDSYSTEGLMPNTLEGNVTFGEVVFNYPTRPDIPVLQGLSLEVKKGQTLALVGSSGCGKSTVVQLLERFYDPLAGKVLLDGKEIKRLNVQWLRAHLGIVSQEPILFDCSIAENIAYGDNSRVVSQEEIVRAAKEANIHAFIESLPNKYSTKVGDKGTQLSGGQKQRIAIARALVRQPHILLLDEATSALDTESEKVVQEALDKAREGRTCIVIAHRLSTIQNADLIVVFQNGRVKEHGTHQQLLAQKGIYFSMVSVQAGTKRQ
Chain of human MATE2 (Q86VL8 1-566 isoform Q86VL8-3): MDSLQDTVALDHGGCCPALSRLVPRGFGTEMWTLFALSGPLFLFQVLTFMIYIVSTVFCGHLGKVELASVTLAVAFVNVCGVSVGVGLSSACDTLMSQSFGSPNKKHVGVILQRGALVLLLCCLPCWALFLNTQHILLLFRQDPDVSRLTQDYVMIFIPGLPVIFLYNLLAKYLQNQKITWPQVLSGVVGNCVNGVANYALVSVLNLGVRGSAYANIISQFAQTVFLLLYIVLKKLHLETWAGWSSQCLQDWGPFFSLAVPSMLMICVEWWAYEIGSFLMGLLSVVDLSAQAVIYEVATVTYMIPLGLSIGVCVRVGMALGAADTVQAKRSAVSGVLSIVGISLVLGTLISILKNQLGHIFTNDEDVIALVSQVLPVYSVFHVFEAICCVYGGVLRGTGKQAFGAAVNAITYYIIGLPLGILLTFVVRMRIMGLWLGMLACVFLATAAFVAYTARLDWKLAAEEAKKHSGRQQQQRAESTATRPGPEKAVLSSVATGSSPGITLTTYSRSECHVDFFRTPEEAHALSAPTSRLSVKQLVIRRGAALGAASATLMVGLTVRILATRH

CCS(=O)(=O)N1CC(CC#N)(n2cc(-c3ncnc4[nH]ccc34)cn2)C1 [Baricitinib]
IC50 (human MATE2): 6.7 ± 5.6 µM | IC50 (human MATE1): 36 ± 24 µM | IC50 (human OCT1): 22.9 ± 18 µM | IC50 (BCRP): > 50 µM | IC50 (P-gp): > 50 µM | IC50 (human OAT1): > 50 µM | IC50 (human OAT3 [1]): 12.7 ± 5 µM

CN(C)C(=O)COC(=O)Cc1ccc(OC(=O)c2ccc(NC(=N)N)cc2)cc1 [Camostat]
IC50 (human MATE2): 2 ± 1.3 µM | IC50 (human OCT1): 20.3 ± 21.3 µM | IC50 (BCRP): > 100 µM | IC50 (P-gp): 35 µM | IC50 (human OAT1): > 100 µM | No. of transporters at major organ sites inhibited at clinical concentrations [2]: 1 | IC50 (human OAT3 [1]): > 100 µM

CCN(CC)CCCC(C)Nc1ccnc2cc(Cl)ccc12 (stereo not drawn) [Chloroquine]
IC50 (human MATE2): 0.7 ± 0.2 µM | IC50 (human MATE1): 0.8 ± 0.8 µM | IC50 (human OCT1): 10.7 ± 10.4 µM | IC50 (human OAT1): > 100 µM | No. of transporters at major organ sites inhibited at clinical concentrations [2]: 4 | IC50 (human OAT3 [1]): > 100 µM

COc1cc2c(c(OC)c1OC)-c1ccc(OC)c(=O)cc1[C@@H](NC(C)=O)CC2 [Colchicine]
IC50 (human MATE2): > 100 µM | IC50 (human MATE1): > 100 µM | IC50 (BCRP): > 100 µM | IC50 (P-gp): 42 µM | IC50 (human OAT3 [1]): > 100 µM

NC(=O)c1nc(F)c[nH]c1=O [Favipiravir]
IC50 (human MATE2): > 100 µM | IC50 (human MATE1): > 100 µM | Cu,max/IC50 OAT3 (human OAT3 [3]): 3.21 | IC50 (human OCT1): > 100 µM | IC50 (BCRP): > 100 µM | IC50 (P-gp): 55 µM | IC50 (human OAT1): 52 µM | No. of transporters at major organ sites inhibited at clinical concentrations [2]: 3 | IC50 (human OAT3 [1]): 84.2 ± 19.5 µM

CCCCCCCCc1ccc(CCC(N)(CO)CO)cc1 [Fingolimod]
IC50 (human MATE2): > 100 µM | IC50 (human MATE1): > 100 µM | IC50 (human OCT1): > 100 µM | IC50 (BCRP): > 100 µM | IC50 (P-gp): 89 µM | IC50 (human OAT1): 64 µM | No. of transporters at major organ sites inhibited at clinical concentrations [2]: 0 | IC50 (human OAT3 [1]): > 100 µM

CCN(CCO)CCCC(C)Nc1ccnc2cc(Cl)ccc12 (stereo not drawn) [Hydroxychloroquine]
IC50 (human MATE2): 0.8 ± 0.1 µM | IC50 (human MATE1): 1.9 ± 0.3 µM | IC50 (human OCT1): 20 ± 15.9 µM | IC50 (BCRP): > 100 µM | IC50 (P-gp): 51.8 ± 20.6 µM | IC50 (human OAT1): > 100 µM | No. of transporters at major organ sites inhibited at clinical concentrations [2]: 4 | IC50 (human OAT3 [1]): > 100 µM

Cc1cccc(C)c1OCC(=O)N[C@@H](Cc1ccccc1)[C@@H](O)C[C@H](Cc1ccccc1)NC(=O)[C@H](C(C)C)N1CCCNC1=O [Lopinavir]
IC50 (human MATE2): 25.1 ± 9.6 µM | IC50 (human MATE1): 22.5 ± 4 µM | IC50 (human OCT1): > 100 µM | IC50 (human OAT1): > 100 µM | No. of transporters at major organ sites inhibited at clinical concentrations [2]: 5 | IC50 (human OAT3 [1]): > 100 µM

CCOC(=O)C1=C[C@@H](OC(CC)CC)[C@H](NC(C)=O)[C@@H](N)C1 [Oseltamivir]
IC50 (human MATE2): > 100 µM | IC50 (human MATE1): > 100 µM | IC50 (human OCT1): > 100 µM | IC50 (BCRP): > 100 µM | IC50 (P-gp): 44 µM | IC50 (human OAT1): 90 µM | No. of transporters at major organ sites inhibited at clinical concentrations [2]: 1 | IC50 (human OAT3 [1]): > 100 µM

COc1cc2nc(N3CCN(C(=O)c4ccco4)CC3)nc(N)c2cc1OC [Prazosin]
IC50 (human MATE2): 2.4 ± 0.9 µM | IC50 (human OCT1): 1.8 ± 2 µM | IC50 (BCRP): > 100 µM | IC50 (human OAT1): > 100 µM

NC(=O)c1ncn([C@@H]2O[C@H](CO)[C@@H](O)[C@H]2O)n1 [Ribavirin]
IC50 (human MATE2): > 100 µM | IC50 (human MATE1): > 100 µM | IC50 (human OCT1): > 100 µM | IC50 (BCRP): > 100 µM | IC50 (P-gp): 47 µM | IC50 (human OAT1): 99 µM | No. of transporters at major organ sites inhibited at clinical concentrations [2]: 2 | IC50 (human OAT3 [1]): > 100 µM

CC(C)c1nc(CN(C)C(=O)N[C@H](C(=O)N[C@@H](Cc2ccccc2)C[C@H](O)[C@H](Cc2ccccc2)NC(=O)OCc2cncs2)C(C)C)cs1 [Ritonavir]
LDL cholesterol, Average On drug ([4]; matched 1:1, n=719 each, off drug 99.5, P 0.0033): 106/99.5 mg/dL | Triglyceride, Average On drug ([4]; matched 1:1, n=782 each, off drug 162, P 7.8E-12): 252/162 mg/dL | Total cholesterol, Average On drug ([4]; matched 1:1, n=803 each, off drug 168, P 3.1E-13): 190/168 mg/dL | LDL cholesterol, Median On drug ([4]; matched 1:1, off drug 96): 101/96 mg/dL | Triglyceride, Median On drug ([4]; matched 1:1, off drug 124): 156/124 mg/dL | Total cholesterol, Median On drug ([4]; matched 1:1, off drug 165): 182/165 mg/dL

O=C1CCC(N2C(=O)c3ccccc3C2=O)C(=O)N1 (stereo not drawn) [Thalidomide]
IC50 (human MATE2): > 100 µM | IC50 (human MATE1): > 100 µM | Cu,max/IC50 OAT3 (human OAT3 [3]): 0.08 | IC50 (human OCT1): > 100 µM | IC50 (BCRP): > 100 µM | IC50 (P-gp): 65 µM | IC50 (human OAT1): > 100 µM | No. of transporters at major organ sites inhibited at clinical concentrations [2]: 1 | IC50 (human OAT3 [1]): 54.6 ± 2.4 µM

C[C@@H]1CCN(C(=O)CC#N)C[C@@H]1N(C)c1ncnc2[nH]ccc12 [Tofacitinib]
IC50 (human MATE2): 68.5 ± 6.2 µM | IC50 (human MATE1): 1 ± 0.5 µM | IC50 (human OCT1): 41.4 ± 13 µM | IC50 (BCRP): > 100 µM | IC50 (P-gp): > 100 µM | IC50 (human OAT1): 89 µM | No. of transporters at major organ sites inhibited at clinical concentrations [2]: 1 | IC50 (human OAT3 [1]): 51.6 ± 7 µM
